From ChEMBL document CHEMBL3396960, “Synthesis and pharmacological characterization of 2-aminobenzaldehyde oxime analogs as dual inhibitors of neutrophil elastase and proteinase 3” (Bioorg Med Chem, 2015)
Calls of active or inactive are those of the source. The calls are words filed in the database; no cut-off is given here.

Experiments:
[1] = test system: Mus musculus; experiment: Protection from LPS-induced acute lung injury in C57BL/6 mouse assessed as inhibition of LPS-induced diffuse edematous changes treated 1 hr prior LPS challenge at 100 mg/kg, ip measured 6 hrs post LPS injection by hematoxylin and eosin staining method
[2] = test system: Mus musculus; experiment: Protection from LPS-induced acute lung injury in C57BL/6 mouse assessed as inhibition of leukocyte infiltration in lung treated 1 hr prior challenge at 100 mg/kg, ip
[3] = test system: Mus musculus; experiment: Antiinflammatory activity in C57BL/6 mouse assessed as inhibition of human neutrophil elastase-induced edema compound treated 1 hr prior challenge at 50 to 100 mg/kg, ip; assay type: functional, organism-based; details: TDE = time-dependent effect
[4] = test system: Mus musculus; experiment: Antiinflammatory activity in C57BL/6 mouse assessed as inhibition of LPS-induced edema compound treated 1 hr prior challenge at 100 mg/kg, ip measured up to 240 mins; assay type: functional, organism-based; set-up: dose 100 mg/kg
[5] = test system: Mus musculus; experiment: Protection from LPS-induced acute lung injury in C57BL/6 mouse assessed as inhibition of LPS-induced alveolar thickening treated 1 hr prior LPS challenge at 100 mg/kg, ip measured 6 hrs post LPS injection by hematoxylin and eosin staining method
[6] = test system: Mus musculus; experiment: Protection from LPS-induced acute lung injury in C57BL/6 mouse assessed as inhibition of LPS-induced leukocyte infiltration treated 1 hr prior LPS challenge at 100 mg/kg, ip measured 6 hrs post LPS injection by hematoxylin and eosin staining method
[7] = target: Prothrombin (Bos taurus, UniProt P00735); experiment: Inhibition of bovine plasma thrombin using Benzoyl-Phe-Val-Arg-7-amido-4-methylcoumarin hydrochloride by spectrophotometry
[8] = test system: Mus musculus; experiment: Protection from LPS-induced acute lung injury in C57BL/6 mouse assessed as inhibition of MPO activity in lung tissue treated 1 hr prior challenge at 100 mg/kg, ip
[9] = test system: Neutrophil; experiment: cells; details: Homo sapiens
[10] = test system: Mus musculus; experiment: Antiinflammatory activity in C57BL/6 mouse assessed as inhibition of human neutrophil elastase-induced edema compound treated ip 1 hr prior challenge measured up to 240 mins post dose; assay type: functional, organism-based
[11] = test system: Mus musculus; experiment: Protection from LPS-induced acute lung injury in C57BL/6 mouse assessed as inhibition of LPS-induced lung tissue destruction treated 1 hr prior LPS challenge at 100 mg/kg, ip measured 6 hrs post LPS injection by hematoxylin and eosin staining method
[12] = test system: Mus musculus; experiment: Toxicity in C57BL/6 mouse assessed as effect on pulmonary alveoli at 100 mg/kg, ip by hematoxylin and eosin staining method; assay type: organism-based; set-up: dose 100 mg/kg, route intraperitoneal; details: in vivo
[13] = test system: Mus musculus; experiment: Toxicity in C57BL/6 mouse assessed as effect on lung structure at 100 mg/kg, ip by hematoxylin and eosin staining method; assay type: organism-based; set-up: dose 100 mg/kg, route intraperitoneal; details: in vivo
[14] = Inhibition of bovine pancreas chymotrypsin using N-succinyl-Ala-Ala-Pro-Phe-7-amido-4-methylcoumarin by spectrophotometry; set-up: species or system Bos taurus
[15] = target: T1, Cathepsin G (Homo sapiens, UniProt P08311); experiment: Inhibition of human cathepsin G using N-succinyl-Ala-Ala-Pro-Phe-p-nitroanilide as substrate measured for 180 mins by spectrophotometry
T1 sequence (P08311 whole entry): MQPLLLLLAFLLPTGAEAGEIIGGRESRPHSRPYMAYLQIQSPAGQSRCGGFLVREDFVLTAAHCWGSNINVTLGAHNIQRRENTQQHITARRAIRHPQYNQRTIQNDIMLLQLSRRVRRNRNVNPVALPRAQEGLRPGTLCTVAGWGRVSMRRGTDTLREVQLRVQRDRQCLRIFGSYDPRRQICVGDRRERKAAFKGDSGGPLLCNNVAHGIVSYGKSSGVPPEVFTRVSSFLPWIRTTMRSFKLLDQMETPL

[16] = target: T2, Neutrophil elastase (Mus musculus, UniProt Q3UP87); experiment: Inhibition of recombinant mouse neutrophil elastase using methoxysuccinyl-Ala-Ala-Pro-Val-pnitroanilide as substrate preincubated for 15 mins before substrate addition measured after 90 mins by spectrophotometry
T2 sequence (Q3UP87 whole entry): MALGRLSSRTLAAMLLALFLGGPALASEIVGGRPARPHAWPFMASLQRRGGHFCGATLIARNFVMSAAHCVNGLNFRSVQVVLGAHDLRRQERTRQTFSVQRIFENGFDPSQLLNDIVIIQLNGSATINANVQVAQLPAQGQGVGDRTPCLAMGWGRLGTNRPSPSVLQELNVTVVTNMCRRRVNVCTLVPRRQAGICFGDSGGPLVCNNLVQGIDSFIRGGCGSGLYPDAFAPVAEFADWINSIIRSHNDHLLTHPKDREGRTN

[17] = target: Pancreatic elastase (Sus scrofa, UniProt P08419+P00772); experiment: Inhibition of porcine pancreatic elastase using methoxysuccinyl-Ala-Ala-Pro-Val-p-nitroanilide as substrate preincubated for 15 mins before substrate addition measured after 60 mins by spectrophotometry; assay type: protein assay
[18] = Inhibition of bovine pancreatic trypsin using Nalpha-benzoyl-L-arginine-7-amido-4-methylcoumarin; set-up: species or system Bos taurus
[19] = test system: Mus musculus; experiment: Antiinflammatory activity in C57BL/6 mouse assessed as inhibition of human neutrophil elastase-induced edema compound treated 1 hr prior challenge at 100 mg/kg, ip measured up to 240 mins; assay type: functional, organism-based; set-up: dose 100 mg/kg
[20] = target: T3, Myeloblastin (Homo sapiens, UniProt P24158); experiment: Inhibition of Pr3 (unknown origin) using t-butyloxycarbonyl-Ala-Ala-Nva-thiobenzyl ester as substrate measured for 180 mins by spectrophotometry
T3 sequence (P24158 whole entry): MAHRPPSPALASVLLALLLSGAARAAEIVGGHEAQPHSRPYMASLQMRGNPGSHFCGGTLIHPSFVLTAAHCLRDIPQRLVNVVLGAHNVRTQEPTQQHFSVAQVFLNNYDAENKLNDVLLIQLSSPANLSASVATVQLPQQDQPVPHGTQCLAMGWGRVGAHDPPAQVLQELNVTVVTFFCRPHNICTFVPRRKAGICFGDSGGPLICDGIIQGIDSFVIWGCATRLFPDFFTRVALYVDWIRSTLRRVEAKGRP

[21] = target: T4, Neutrophil elastase (Homo sapiens, UniProt P08246); experiment: Inhibition of human neutrophil elastase measured for 30 mins by spectrophotometry
T4 sequence (P08246 whole entry): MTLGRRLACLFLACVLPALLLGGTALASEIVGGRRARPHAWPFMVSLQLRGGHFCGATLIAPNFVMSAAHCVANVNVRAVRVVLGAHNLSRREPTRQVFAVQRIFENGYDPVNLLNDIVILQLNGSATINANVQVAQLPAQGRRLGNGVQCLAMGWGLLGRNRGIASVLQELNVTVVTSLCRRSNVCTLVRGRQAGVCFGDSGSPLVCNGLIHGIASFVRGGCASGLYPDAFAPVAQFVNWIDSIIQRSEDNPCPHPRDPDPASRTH

[22] = test system: Neutrophil; experiment: cells; details: Homo sapiens; remark: listed apart in the source

Structure (SMILES)	IC50 [9] [µM]	IC50 [15] [µM]	IC50 [21] [µM]	IC50 [22] [µM]	other results
C/C(=N/O)c1ccccc1NS(=O)(=O)c1ccc(OC(=O)C(C)(C)C)cc1	19.6	> 10	–	–	inhibition [1]: Active; inhibition [2]: Active; inhibition [3]: tde; inhibition [4]: Active; inhibition [5]: Active; inhibition [6]: Active; IC50 [7]: > 10 µM; inhibition [8]: Active; inhibition [10]: Dose-dependent effect; inhibition [11]: Active; Activity [12]: Non-toxic; Activity [13]: Non-toxic; IC50 [14]: 0.594 µM; IC50 [16]: 0.191 µM; IC50 [17]: 1.88198 µM; IC50 [18]: > 10 µM
CO/N=C(\C)c1ccccc1NS(=O)(=O)c1ccc(OC(=O)C(C)(C)C)cc1	> 20	> 10	–	–	–
CC(C)(C)C(=O)Oc1ccc(S(=O)(=O)Nc2ccccc2C(=O)NCC(=O)O)cc1	> 20	> 10	–	–	inhibition [1]: Active; inhibition [2]: Active; inhibition [4]: Active; inhibition [5]: Active; inhibition [6]: Active; IC50 [7]: > 10 µM; inhibition [19]: Active; inhibition [8]: Active; IC50 [20]: 0.34 µM; inhibition [11]: Active; IC50 [14]: 1.95 µM; IC50 [16]: 0.145 µM; IC50 [17]: 2.18517 µM; IC50 [18]: > 10 µM
COC(=O)c1ccccc1NS(=O)(=O)c1ccc(NC(=O)C(C)(C)C)cc1	> 20	> 10	> 10	13.6	IC50 [20]: > 10 µM
CCCC(=O)c1ccccc1NS(=O)(=O)c1ccc(OC(=O)C(C)(C)C)cc1	> 20	> 10	0.37	–	–
CCC/C(=N/O)c1ccccc1NS(=O)(=O)c1ccc(OC(=O)C(C)(C)C)cc1	> 20	> 10	–	–	–
CC(C)(C)C(=O)Oc1ccc(S(=O)(=O)Nc2ccccc2C(=O)NCCO)cc1	> 20	> 10	0.13	0.05	–
CO/N=C(/C)c1ccccc1NS(=O)(=O)c1ccc(OC(=O)C(C)(C)C)cc1	> 20	> 10	–	–	–
CC(C)(C)[S+]([O-])Nc1ccc(S(=O)(=O)Nc2ccccc2C=O)cc1 (centres undefined)	> 20	> 10	> 10	9.41	IC50 [20]: > 10 µM
CC(C)(C)C(=O)Oc1ccc(S(=O)(=O)Nc2ccccc2/C=N\O)cc1	> 20	> 10	–	–	–
CC(=O)c1ccccc1NS(=O)(=O)c1ccc(OC(=O)C(C)(C)C)cc1	> 20	> 10	0.11	0.09	–
CC/C(=N/O)c1ccccc1NS(=O)(=O)c1ccc(OC(=O)C(C)(C)C)cc1	13.4	> 10	–	–	–
CCCCC(=O)c1ccccc1NS(=O)(=O)c1ccc(OC(=O)C(C)(C)C)cc1	> 20	> 10	2.24	0.11	–
COC(=O)c1ccccc1NC(=O)c1ccc(OC(=O)C(C)(C)C)cc1	> 20	> 10	0.82	0.55	–
CC(C)(C)C(=O)Oc1ccc(S(=O)(=O)Nc2ccccc2C(=O)OCCO)cc1	> 20	> 10	0.29	0.05	–
CC(C)(C)C(=O)Oc1ccc(S(=O)(=O)Nc2ccccc2C=O)cc1	> 20	> 10	0.12	0.05	–
COC(=O)c1ccccc1NS(=O)(=O)c1ccc(OC(=O)C(C)(C)C(F)(F)F)cc1	–	> 10	–	4.94	–
CCC(=O)c1ccccc1NS(=O)(=O)c1ccc(OC(=O)C(C)(C)C)cc1	> 20	> 10	0.19	–	–
CCOC(=O)c1ccccc1NC(=O)c1ccc(OC(=O)C(C)(C)C(F)(F)F)cc1	> 20	> 10	> 10	13.8	IC50 [20]: > 10 µM
CCCOC(=O)c1ccccc1NC(=O)c1ccc(OC(=O)C(C)(C)C)cc1	> 20	> 10	1.23	0.62	–
COC(=O)c1ccccc1NC(=O)c1ccc(OC(=O)C(C)(C)C(F)(F)F)cc1	> 20	> 10	> 10	> 20	IC50 [20]: > 10 µM
CCCOC(=O)c1ccccc1NC(=O)c1ccc(OC(=O)C(C)(C)C(F)(F)F)cc1	> 20	> 10	> 10	> 20	IC50 [20]: > 10 µM
CCOC(=O)c1ccccc1NC(=O)c1ccc(OC(=O)C(C)(C)C)cc1	> 20	> 10	0.48	0.3	–
